According to patent publication US20090184062A1, “METHOD FOR INHIBITING BIOFILM GROWTH” (PPG INDUSTRIES OHIO, INC., priority 2008, published 2009):
Marks after values point to notes of the source that are not given here.

What was measured:
[1] = test system: Sphaerotilus natans (ATCC 15291) biofilm; assay: Biocidal effect on an existing Sphaerotilus natans biofilm in Erlenmeyer flasks (agar plate count of surviving organisms); type: cell-based
Procedure: In the following examples, the sheathed filamentous bacterium Sphaerotilus natans (ATCC 15291) was used. A freeze-dried sample of the bacterium was obtained from the American Type Culture Collection (ATCC, Rockville, Md.). ATCC growth medium (CYGA #1103 broth) was prepared by dissolving (per liter of tap water): 5 grams casitone (pancreatic digest of casein, Difco #225930), which is available from Voight Global Distributions, Inc., Lawrence, Kans.; 10 grams of glycerol; and 1 gram of yeast extract. The growth medium was sterilized at 120° C. for 15 minutes. The sample of Sphaerotilus natans obtained from ATCC was cultured in the CYGA growth medium and transferred to agar plates prepared from CYGA medium plus 1.5 weight percent agar. The agar plates were incubated at 30° C. The bacterium from these agar plates was transferred (subcultured) every few weeks to fresh agar plates to maintain the viability of the microorganism.
3-chloro-4,4-dimethyl-2-oxazolidinone (DMO-Cl) reagent was prepared by manually mixing a selected amount of 4,4-dimethyl-2-oxazolidinone (DMO) and a hypochlorite-containing stock solution in an Erlenmeyer flask, and allowing the mixture to stand for 8-10 hours at room temperature (about 23° C.) prior to use in the experiments. The hypochlorite-containing stock solution was prepared by dissolving calcium hypochlorite in deionized water in an Erlenmeyer flask. The amount of calcium hypochlorite used provided a hypochlorite concentration of approximately 1000 mg/L. The DMO used was Sustains Summer Shield (approximately 17.5 wt. % DMO, density of 1.14 g/mL), which is available from PPG Industries, Inc. The mixture was diluted to the desired concentration with sterile tap water before use in the experiments. Sterile tap water used in the experiments was prepared by autoclaving tap water at 120° C. for 15 minutes. The sterile tap water contained no measurable level of chlorine.
A loop full of Sphaerotilus natans (S. Natans) from an Agar plate containing the S. Natans culture was inoculated in 150 mL of CYGA #1103 growth medium and agitated in a temperature-controlled shaker at 30° C. and 150 rpm for 20 hours to prepare a pre-culture. Five (5) mL of this pre-culture were inoculated into each of a series of 250 mL Erlenmeyer flasks containing 150 mL of CYGA growth medium for batch cultivation of the S. Natans. The bacterium were cultivated at 30° C. for 96 hours on a rotary shaker at 150 rpm. At these conditions, a biofilm layer approximately 2-3 mm high formed on the inside wall of each of the Erlenmeyer flasks near the liquid surface. Approximately 50 to 75 percent of the liquid growth medium in the flasks was carefully decanted, leaving the biofilm layer intact. The decanted liquid growth medium was discarded.
For the control, sterile tap water was added to an Erlenmeyer flask. In other tests (as shown in Table I), various levels of hypochlorous acid (HOCl) or 3-chloro-4,4-dimethyl-2-oxazolidinone (DMO-Cl) were added to an Erlenmeyer flask. The amount of tap water used was approximately equal to the volume of decanted growth medium. The flasks were placed on a temperature controlled rotary shaker (30° C., 150 rpm) for 60 minutes. Total chlorine and free chlorine levels in the liquid medium in the flasks were measured at the beginning and at the end of the 60 minute contact time. At the end of the 60 minute contact time, the biofilm ring was carefully scraped from the flask surface and added to the liquid medium in the flask to ensure that the liquid medium contained the entire biofilm population for enumeration. The liquid in the flask was vigorously agitated to uniformly disperse the organisms. The liquid in the flask was sampled and serially diluted in sterile tap water for agar plating to enumerate the surviving organisms. Agar plating was performed in duplicate and the number of microorganism colonies counted after 48 hours of growth at approximately 30° C. […]

[2] = Total and free chlorine levels in the liquid medium at the end of the contact time (Hach DPD test kit); type: physicochemical; details: for End FC (free chlorine after one hour) / End TC (total chlorine after one hour): Table I, after 60 min with biofilm, expressed as mg/L Cl2; for End FC (free chlorine at end) / End TC (total chlorine at end): Table II, 30 min contact, as Cl2
Procedure: For the control, sterile tap water was added to an Erlenmeyer flask. In other tests (as shown in Table I), various levels of hypochlorous acid (HOCl) or 3-chloro-4,4-dimethyl-2-oxazolidinone (DMO-Cl) were added to an Erlenmeyer flask. The amount of tap water used was approximately equal to the volume of decanted growth medium. The flasks were placed on a temperature controlled rotary shaker (30° C., 150 rpm) for 60 minutes. Total chlorine and free chlorine levels in the liquid medium in the flasks were measured at the beginning and at the end of the 60 minute contact time. At the end of the 60 minute contact time, the biofilm ring was carefully scraped from the flask surface and added to the liquid medium in the flask to ensure that the liquid medium contained the entire biofilm population for enumeration. The liquid in the flask was vigorously agitated to uniformly disperse the organisms. The liquid in the flask was sampled and serially diluted in sterile tap water for agar plating to enumerate the surviving organisms. Agar plating was performed in duplicate and the number of microorganism colonies counted after 48 hours of growth at approximately 30° C.
The procedure of Example 1 was followed except that the concentration of DMO-Cl was varied from 15 μL/L to 60 μL/L, and the contact time was 30 minutes to allow a better opportunity for survival and detection of the S. Natans microorganism. Symbols and footnotes used in Table II that are the same as those found in Table I have the same meaning.

[3] = initial total chlorine 5.4 mg/L
[4] = initial total chlorine about 1 mg/L (HOCl 1.1; DMO-Cl 1.04)
[5] = DMO-Cl prepared with 15 μL/L Sustain Summer Shield, initial total chlorine 1.2 mg/L
[6] = DMO-Cl prepared with 30 μL/L Sustain Summer Shield, initial total chlorine 1.18 mg/L
[7] = DMO-Cl prepared with 60 μL/L Sustain Summer Shield, initial total chlorine 1.19 mg/L
[8] = Table I, 60 min contact, initial total chlorine 5.4 mg/L (DMO-Cl prepared with 50 μL/L Sustain Summer Shield), average of duplicates
[9] = Table I, 60 min contact, initial total chlorine about 1 mg/L (HOCl 1.1; DMO-Cl 1.04, prepared with 50 μL/L Sustain Summer Shield, approx. 10 mg/L DMO), average of duplicates
[10] = HOCl, initial total chlorine 1.1 mg/L

| SMILES | control of biofilm in words ([1]; between 50 and 60 μL/L of DMO with a source of free available chlorine, contact times between 30 and 60 minutes) | End FC (free chlorine after one hour) [2, 3] | End TC (total chlorine after one hour) [2, 3] | End FC (free chlorine after one hour) [2, 4] | End TC (total chlorine after one hour) [2, 4] | End FC (free chlorine at end) [2, 5] | End TC (total chlorine at end) [2, 5] | End FC (free chlorine at end) [2, 6] | End TC (total chlorine at end) [2, 6] | End FC (free chlorine at end) [2, 7] | End TC (total chlorine at end) [2, 7] | Final Cell Count [1, 8] | Final Cell Count [1, 9] | Final Cell Count ([1]; Table II, 30 min contact, DMO-Cl prepared with 15 μL/L Sustain Summer Shield (approx. 3 mg/L DMO), initial total chlorine 1.2 mg/L) | Final Cell Count ([1]; Table II, 30 min contact, DMO-Cl prepared with 30 μL/L Sustain Summer Shield (approx. 6 mg/L DMO), initial total chlorine 1.18 mg/L) | Final Cell Count ([1]; Table II, 30 min contact, DMO-Cl prepared with 60 μL/L Sustain Summer Shield (approx. 12 mg/L DMO), initial total chlorine 1.19 mg/L) | reduction in viable cell numbers ([1]; existing S. Natans biofilm, 60 minutes contact time (Table I)) | End FC (free chlorine at end) [2, 10] | End TC (total chlorine at end) [2, 10] | Final Cell Count ([1]; Table II, 30 min contact, HOCl, initial total chlorine 1.1 mg/L) |
| --- | --- | --- | --- | --- | --- | --- | --- | --- | --- | --- | --- | --- | --- | --- | --- | --- | --- | --- | --- | --- |
| CC1(C)COC(=O)N1 [DMO, 4,4-dimethyl-2-oxazolidinone] | complete control | – | – | – | – | – | – | – | – | – | – | – | – | – | – | – | – | – | – | – |
| CC1(C)COC(=O)N1Cl [DMO-Cl, 3-chloro-4,4-dimethyl-2-oxazolidinone] | – | 0.2 mg/L | 4.7 mg/L | 0.1 mg/L | 0.4 mg/L | 0.05 mg/L | 0.52 mg/L | 0.07 mg/L | 0.47 mg/L | 0 mg/L | 0.41 mg/L | 0 cfu/mL | 25^a cfu/mL | 2.1 × 10^4 cfu/mL | 1.6 × 10^4 cfu/mL | 0 cfu/mL | ≥ 3 log | – | – | – |
| OCl [HOCl, Hypochlorous Acid, reference compound] | – | 1.6 mg/L | 3.1 mg/L | 0 mg/L | 0.3 mg/L | – | – | – | – | – | – | 0 cfu/mL | 1.9 × 10^4 cfu/mL | – | – | – | – | 0.1 mg/L | 0.31 mg/L | 2.3 × 10^4 cfu/mL |
